In patent publication US20250382305A1 (PTC THERAPEUTICS, INC., priority 2022, published 2025):

What was measured:
[1] = tested on: ATXN3 pre-mRNA; assay: RT-qPCR Assay to Quantify Exon 4 Skipping in ATXN3 pre-mRNA in Cells; format: cell-based; details: percent exon 4 skipping in ATXN3 pre-mRNA, RT-qPCR of cell lysates; average IC50
In short: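 IC50 derives from a dose-response fit of percent exon 4 skipping, quantified by RT-qPCR on crude lysates. Compounds tested as 7-point 3.16-fold dilutions in duplicate; cells (10,000/well) were exposed for 24 h at 37 °C before lysis.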

[2] = tested on: Total ATXN3 (tATXN3) protein; assay: Endogenous Total ATXN3 (tATXN3) Protein Assay (MSD immunoassay of cell lysates); format: cell-based; details: average IC50, total ATXN3 protein in cell lysate after 48 h with compound (Table 1)
In short: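 By electrochemiluminescent MSD sandwich immunoassay (mouse monoclonal capture, rabbit monoclonal and SULFO-TAG anti-rabbit detection), endogenous ATXN3 was quantified in lysates of cells treated 48 h at 37° C at 10,000 cells/well. Treatment used a 7-point 3.16-fold duplicate dilution series, with average IC50 grouped into star categories.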

IC50 [1] | IC50 [2] | Compound
> 1 µM | > 1 µM | N[C@@H]1CCCC[C@H]1c1sc2c(NCc3cccs3)cc(Cl)nc2c1I [Compound 58, 2-((1R,2R)-2-aminocyclohexyl)-5-chloro-3-iodo-N-(thiophen-2-ylmethyl)thieno[3,2-b]pyridin-7-amine]
≤ 0.03 µM | 0.03 to 0.3 µM | N[C@@H]1CC=CC[C@H]1c1c(I)c2nc(Cl)nc(NCc3ccccc3)c2n1C(F)F [Compound 424, 6-((1R,6R)-6-aminocyclohex-3-en-1-yl)-N-benzyl-2-chloro-5-(difluoromethyl)-7-iodo-5H-pyrrolo[3,2-d]pyrimidin-4-amine]
0.03 to 0.3 µM | 0.3 to 1 µM | CCc1c([C@H]2CCC[C@@H]2N)sc2c(NCc3cccs3)cc(Cl)nc12 [Compound 11, 2-((1S,2S)-2-aminocyclopentyl)-5-chloro-3-ethyl-N-(thiophen-2-ylmethyl)thieno[3,2-b]pyridin-7-amine]
0.03 to 0.3 µM | 0.3 to 1 µM | N[C@@H]1CC=CC[C@H]1c1sc2c(NCc3ccccc3)cc(Cl)nc2c1Br [Compound 403, 2-((1R,6R)-6-aminocyclohex-3-en-1-yl)-N-benzyl-3-bromo-5-chlorothieno[3,2-b]pyridin-7-amine]
> 1 µM | 0.3 to 1 µM | N[C@@H]1CCCO[C@H]1c1sc2c(NCc3ccccc3)cc(Cl)nc2c1I [Compound 132, 2-((2R,3R)-3-aminotetrahydro-2H-pyran-2-yl)-N-benzyl-5-chloro-3-iodothieno[3,2-b]pyridin-7-amine]
0.03 to 0.3 µM | 0.03 to 0.3 µM | Cc1c([C@H]2CCCCC[C@@H]2N)sc2c(NCc3cccs3)cc(Cl)nc12 [Compound 81, 2-((1S,2S)-2-aminocycloheptyl)-5-chloro-3-methyl-N-(thiophen-2-ylmethyl)thieno[3,2-b]pyridin-7-amine]
≤ 0.03 µM | ≤ 0.03 µM | N[C@H]1CC=CC[C@@H]1c1sc2c(NCc3ccncc3F)cc(Cl)nc2c1Cl [Compound 239, 2-((1S,6S)-6-aminocyclohex-3-en-1-yl)-3,5-dichloro-N-((3-fluoropyridin-4-yl)methyl)thieno[3,2-b]pyridin-7-amine]
≤ 0.03 µM | ≤ 0.03 µM | N[C@H]1CCOC[C@@H]1c1sc2c(NCc3cccs3)cc(Cl)nc2c1Cl [Compound 179, 2-((3R,4S)-4-aminotetrahydro-2H-pyran-3-yl)-3,5-dichloro-N-(thiophen-2-ylmethyl)thieno[3,2-b]pyridin-7-amine]
0.03 to 0.3 µM | 0.03 to 0.3 µM | N[C@@H]1CCCCC1c1sc2c(NCc3cccs3)cc(Cl)nc2c1C(F)F.N[C@H]1CCCCC1c1sc2c(NCc3cccs3)cc(Cl)nc2c1C(F)F (mixture of isomers) [Compound 279, 2-((2R)-2-aminocyclohexyl)-5-chloro-3-(difluoromethyl)-N-(thiophen-2-ylmethyl)thieno[3,2-b]pyridin-7-amine and 2-((2S)-2-aminocyclohexyl)-5-chloro-3-(difluoromethyl)-N-(thiophen-2-ylmethyl)thieno[3,2-b]pyridin-7-amine]
> 1 µM | > 1 µM | Cc1c([C@H]2CCCCCC[C@H]2N)sc2c(NCc3cccs3)cc(Cl)nc12 [Compound 93, 2-((1S,2R)-2-aminocyclooctyl)-5-chloro-3-methyl-N-(thiophen-2-ylmethyl)thieno[3,2-b]pyridin-7-amine]
≤ 0.03 µM | 0.03 to 0.3 µM | N[C@@H]1CCOC[C@H]1c1sc2c(NCc3ccccc3)cc(Cl)nc2c1Cl [Compound 406, 2-((3S,4R)-4-aminotetrahydro-2H-pyran-3-yl)-N-benzyl-3,5-dichlorothieno[3,2-b]pyridin-7-amine]
≤ 0.03 µM | 0.03 to 0.3 µM | N[C@H]1COCC[C@@H]1c1sc2c(NCc3nccs3)cc(Cl)nc2c1I [Compound 265, 2-((3R,4S)-3-aminotetrahydro-2H-pyran-4-yl)-5-chloro-3-iodo-N-(thiazol-2-ylmethyl)thieno[3,2-b]pyridin-7-amine]
0.03 to 0.3 µM | 0.03 to 0.3 µM | 6-((1S,2S)-2-aminocyclohexyl)-N-(but-2-yn-1-yl)-2-chloro-7-iodothieno[3,2-d]pyrimidin-4-amine [Compound 286]
0.3 to 1 µM | 0.3 to 1 µM | 2-((1R,6R)-6-aminocyclohex-3-en-1-yl)-3-bromo-5-chloro-N-((E)-pent-2-en-1-yl)thieno[3,2-b]pyridin-7-amine and 2-((1S,6S)-6-aminocyclohex-3-en-1-yl)-3-bromo-5-chloro-N-((E)-pent-2-en-1-yl)thieno[3,2-b]pyridin-7-amine [Compound 455]
0.03 to 0.3 µM | 0.03 to 0.3 µM | N[C@H]1CCC[C@@H]1c1sc2c(NCc3ccccc3)cc(Cl)nc2c1Br [Compound 166, 2-((1S,2S)-2-aminocyclopentyl)-N-benzyl-3-bromo-5-chlorothieno[3,2-b]pyridin-7-amine]
≤ 0.03 µM | ≤ 0.03 µM | N[C@H]1CCCO[C@@H]1c1sc2c(NCc3ccco3)cc(Cl)nc2c1Cl [Compound 116, 2-((2S,3S)-3-aminotetrahydro-2H-pyran-2-yl)-3,5-dichloro-N-(furan-2-ylmethyl)thieno[3,2-b]pyridin-7-amine]
0.03 to 0.3 µM | 0.03 to 0.3 µM | N[C@H]1CCCC[C@H]1c1sc2c(NCc3cccs3)cc(Cl)nc2c1Cl [Compound 13, 2-((1R,2S)-2-aminocyclohexyl)-3,5-dichloro-N-(thiophen-2-ylmethyl)thieno[3,2-b]pyridin-7-amine]
> 1 µM | > 1 µM | N[C@H]1CCCCCC[C@H]1c1sc2c(NCc3cccs3)cc(Cl)nc2c1Cl [Compound 91, 2-((1R,2S)-2-aminocyclooctyl)-3,5-dichloro-N-(thiophen-2-ylmethyl)thieno[3,2-b]pyridin-7-amine]
≤ 0.03 µM | ≤ 0.03 µM | N[C@H]1CCC[C@@H]1c1sc2c(NCc3cccs3)cc(Cl)nc2c1I [Compound 162, 2-((1S,2S)-2-aminocyclopentyl)-5-chloro-3-iodo-N-(thiophen-2-ylmethyl)thieno[3,2-b]pyridin-7-amine]
≤ 0.03 µM | 0.03 to 0.3 µM | N[C@H]1COCC[C@@H]1c1sc2c(NCc3cccs3)cc(Cl)nc2c1Br [Compound 139, 2-((3R,4S)-3-aminotetrahydro-2H-pyran-4-yl)-3-bromo-5-chloro-N-(thiophen-2-ylmethyl)thieno[3,2-b]pyridin-7-amine]
≤ 0.03 µM | ≤ 0.03 µM | Cc1c([C@H]2CC=CC[C@@H]2N)sc2c(NCc3cccs3)cc(Cl)nc12 [Compound 222, 2-((1S,6S)-6-aminocyclohex-3-en-1-yl)-5-chloro-3-methyl-N-(thiophen-2-ylmethyl)thieno[3,2-b]pyridin-7-amine]
≤ 0.03 µM | ≤ 0.03 µM | N[C@@H]1CC=CC[C@@H]1c1sc2c(NCc3cccs3)cc(Cl)nc2c1Br.N[C@H]1CC=CC[C@H]1c1sc2c(NCc3cccs3)cc(Cl)nc2c1Br (racemic) [Compound 144, 2-((1S,6RS)-6-aminocyclohex-3-en-1-yl)-3-bromo-5-chloro-N-(thiophen-2-ylmethyl)thieno[3,2-b]pyridin-7-amine and 2-((1R,6SR)-6-aminocyclohex-3-en-1-yl)-3-bromo-5-chloro-N-(thiophen-2-ylmethyl)thieno[3,2-b]pyridin-7-amine]
0.3 to 1 µM | 0.3 to 1 µM | N[C@@H]1CC=CC[C@H]1c1sc2c(NCc3ccsc3)cc(Cl)nc2c1Br [Compound 415, 2-((1R,6R)-6-aminocyclohex-3-en-1-yl)-3-bromo-5-chloro-N-(thiophen-3-ylmethyl)thieno[3,2-b]pyridin-7-amine]
> 1 µM | > 1 µM | N[C@@H]1CCCCC[C@H]1c1sc2c(NCc3cccs3)cc(Cl)nc2c1I [Compound 157, 2-((1R,2R)-2-aminocycloheptyl)-5-chloro-3-iodo-N-(thiophen-2-ylmethyl)thieno[3,2-b]pyridin-7-amine]

Compound | IC50 [1] | IC50 [2]
6-((2R,3R)-3-aminotetrahydro-2H-pyran-2-yl)-2-chloro-N-(furan-2-ylmethyl)-7-iodothieno[3,2-d]pyrimidin-4-amine and 6-((2S,3S)-3-aminotetrahydro-2H-pyran-2-yl)-2-chloro-N-(furan-2-ylmethyl)-7-iodothieno[3,2-d]pyrimidin-4-amine [Compound 243] | ≤ 0.03 µM | ≤ 0.03 µM
N[C@H]1CC=CC[C@@H]1c1sc2c(NCc3cccs3)cc(Cl)nc2c1I [Compound 176, 2-((1S,6S)-6-aminocyclohex-3-en-1-yl)-5-chloro-3-iodo-N-(thiophen-2-ylmethyl)thieno[3,2-b]pyridin-7-amine] | ≤ 0.03 µM | ≤ 0.03 µM
N[C@@H]1CCCO[C@H]1c1sc2c(NCc3ccco3)nc(Cl)nc2c1C#CCO.N[C@H]1CCCO[C@@H]1c1sc2c(NCc3ccco3)nc(Cl)nc2c1C#CCO (mixture of isomers) [Compound 255, 3-(6-((2R,3R)-3-aminotetrahydro-2H-pyran-2-yl)-2-chloro-4-((furan-2-ylmethyl)amino)thieno[3,2-d]pyrimidin-7-yl)prop-2-yn-1-ol and 3-(6-((2S,3S)-3-aminotetrahydro-2H-pyran-2-yl)-2-chloro-4-((furan-2-ylmethyl)amino)thieno[3,2-d]pyrimidin-7-yl)prop-2-yn-1-ol] | ≤ 0.03 µM | 0.03 to 0.3 µM
CCc1c([C@@H]2CCCC[C@H]2N)sc2c(NCc3cccs3)cc(Cl)nc12 (single isomer, unassigned) [Compound 39, 2-((1R,2R)-2-aminocyclohexyl)-5-chloro-3-ethyl-N-(thiophen-2-ylmethyl)thieno[3,2-b]pyridin-7-amine or 2-((1S,2S)-2-aminocyclohexyl)-5-chloro-3-ethyl-N-(thiophen-2-ylmethyl)thieno[3,2-b]pyridine-7-amine] | > 1 µM | > 1 µM
